≈ marks a conversion by molar mass, not a printed value.
Test: Solubility in water according to the Higuchi-Connor method
Type: physicochemical
Settings: thermodynamic from solid; excess amount added to 10 ml of water, shaken on mechanical shaker for 48 hours, filtered, dissolved drug content; read-out: Indomethacin Solubility in water
Experimental: The solubility of the drug (indomethacin) and solid dispersions of the drug according to the invention was examined in water according to the Higuchi-Connor method, see "Advances in Analytical Chemical Chemistry and Instrumentation" Vol. 4, New York, Wiley-Interscience 1965, page 117-212. An excess amount of drug, comparative solid dispersions and inventive solid dispersions was added to 10 ml of water, separately. The dispersions were shaken on mechanical shaker for 48 hours. Afterwards, the samples were withdrawn, filtered, diluted and analyzed to calculate the dissolved drug content.

COc1ccc2c(c1)c(CC(=O)O)c(C)n2C(=O)c1ccc(Cl)cc1 [Indomethacin]
solubility at 48 h: 152 µg/mL (≈ 425 µM)
